Measurements taken from US20120052528A1, “METHOD FOR PRODUCING SELECTIVE MEDIUM AND USE THEREOF” (THE UNIVERSITY OF TOKYO, priority 2009, published 2012).

Legend:
[1] = test system: contaminating germs in soil; test: Limited search of carbon sources: assimilation by contaminating germs in soil; type: cell-based; conditions: conclusion from Table 5
other bacterial cells = test: Limited search of carbon sources: colony formation of other bacterial cells from a soil suspension on carbon-source agar medium; conditions: soil suspension smeared on agar medium with the carbon source, 30° C., 5 days; relative value, carbon source-free medium = 100%
Procedure: (§1) Any carbon source, crystal violet (antibiotic) and agar are mixed with basic medium components so as to prepare an agar medium. A soil suspension (100 p1) prepared by suspending of soil for plant cultivation (1 g) in water (100 ml) is smeared (repeatedly 3 times) on the medium, followed by culture at 30° C. for 5 days. The numbers of colonies of filamentous bacterial cells and other bacterial cells that are formed on the medium are counted. Each counted value is represented as a relative value (%) determined based on the number of colonies formed on a “carbon source-free” medium (100%). If the degree of colony formation is less than 30 (for filamentous bacterial cells) and is less than 60 (for bacterial cells), the carbon source is selected as a carbon source having high growth inhibitory effects. The smaller value indicates the smaller number of contaminating germs (filamentous bacteria and other bacteria) that assimilate the carbon source.

[2] = test system: filamentous bacterial cells; test: Limited search of carbon sources: colony formation of filamentous bacterial cells from a soil suspension on carbon-source agar medium; conditions: soil suspension smeared on agar medium with the carbon source, 30° C., 5 days; relative value, carbon source-free medium = 100%
Procedure: as §1

Molecule | likelihood of assimilation of the carbon source by contaminating germs in soil [1] | Other bacterial cells Average number of grown colonies ± standard error (other bacterial cells) [%] | Filamentous bacterial cells Average number of grown colonies ± standard error [2] [%]
O=C[C@@H](O)[C@H](O)[C@H](O)CO [Arabinose] | less likely to be assimilated | 51 ± 2 | 100 ± 0
N=C(N)NCCC[C@H](N)C(=O)O [Arginine] | less likely to be assimilated | 99 ± 3 | 19 ± 8
N[C@@H](CC(=O)O)C(=O)O [Aspartic acid] | less likely to be assimilated | 32 ± 3 | 11 ± 9
O=C[C@H](O)[C@@H](O)[C@H](O[C@@H]1O[C@H](CO)[C@@H](O)[C@H](O)[C@H]1O)[C@H](O)CO [Cellobiose] | – | 76 ± 5 | 42 ± 18
O=C(CO)[C@@H](O)[C@H](O)[C@H](O)CO [Fructose] | – | 84 ± 3 | 100 ± 0
N[C@@H](CCC(=O)O)C(=O)O [Glutamic acid] | – | 66 ± 6 | 83 ± 14
NC(=O)CC[C@H](N)C(=O)O [Glutamine] | – | 66 ± 4 | 100 ± 0
NCC(=O)O [Glycine] | – | 69 ± 5 | 72 ± 2
N[C@@H](Cc1c[nH]cn1)C(=O)O [Histidine] | – | 62 ± 2 | 203 ± 32
O[C@H]1[C@H](O)[C@@H](O)[C@H](O)[C@@H](O)[C@H]1O [Inositol] | less likely to be assimilated | 57 ± 7 | 0 ± 0
CC[C@H](C)[C@H](N)C(=O)O [Isoleucine] | less likely to be assimilated | 44 ± 2 | 28 ± 2
OC[C@H]1O[C@@H](O[C@H]2[C@H](O)[C@@H](O)C(O)O[C@@H]2CO)[C@H](O)[C@@H](O)[C@H]1O (stereo partly drawn) [Lactose] | – | 77 ± 4 | 128 ± 2
CC(C)C[C@H](N)C(=O)O [Leucine] | less likely to be assimilated | 42 ± 3 | 67 ± 141
NCCCC[C@H](N)C(=O)O [Lysine] | less likely to be assimilated | 56 ± 5 | 33 ± 14
OC[C@@H](O)[C@@H](O)[C@H](O)[C@H](O)CO [Mannitol] | less likely to be assimilated | 54 ± 4 | 27 ± 17
CSCC[C@H](N)C(=O)O [Methionine] | less likely to be assimilated | 38 ± 4 | 38 ± 16

Molecule | likelihood of assimilation of the carbon source by contaminating germs in soil [1] | Other bacterial cells Average number of grown colonies ± standard error (other bacterial cells) [%] | Filamentous bacterial cells Average number of grown colonies ± standard error [2] [%]
N[C@@H](Cc1ccccc1)C(=O)O [Phenylalanine] | less likely to be assimilated | 36 ± 6 | 47 ± 19
O=C(O)[C@@H]1CCCN1 [Proline] | less likely to be assimilated | 66 ± 4 | 11 ± 9
OC[C@@H](O)[C@@H](O)[C@@H](O)CO [Ribitol] | – | 67 ± 2 | 139 ± 11
N[C@@H](CO)C(=O)O [Serine] | – | 87 ± 3 | 131 ± 16
O=C([O-])CCCCC(=O)[O-].[Na+].[Na+] [Sodium adipate] | – | 122 ± 10 | 36 ± 18
OC[C@@H](O)[C@@H](O)[C@H](O)[C@@H](O)CO [Sorbitol] | – | 63 ± 5 | 128 ± 2
O=C(CO)[C@H](O)[C@@H](O)[C@H](O)CO [Sorbose] | – | 68 ± 3 | 128 ± 2
OC[C@H]1O[C@@](CO)(O[C@H]2O[C@H](CO)[C@@H](O)[C@H](O)[C@H]2O)[C@@H](O)[C@@H]1O [Sucrose] | – | 71 ± 4 | 211 ± 15
O=C(O)C(O)C(O)C(=O)O (stereo not drawn) [Tartaric acid] | – | 81 ± 3 | 64 ± 6
C[C@@H](O)[C@H](N)C(=O)O [Threonine] | less likely to be assimilated | 59 ± 5 | 0 ± 0
OC[C@H]1O[C@H](O[C@H]2O[C@H](CO)[C@@H](O)[C@H](O)[C@H]2O)[C@H](O)[C@@H](O)[C@@H]1O [Trehalose] | less likely to be assimilated | 51 ± 7 | 156 ± 5
N[C@@H](Cc1c[nH]c2ccccc12)C(=O)O [Tryptophan] | – | 100 ± 5 | 167 ± 18
N[C@@H](Cc1ccc(O)cc1)C(=O)O [Tyrosine] | less likely to be assimilated | 55 ± 4 | 81 ± 39
CC(C)[C@H](N)C(=O)O [Valine] | less likely to be assimilated | 38 ± 5 | 19 ± 8
Polygalacturonic acid | less likely to be assimilated | 19 ± 2 | 8 ± 7
